In PubChem BioAssay (NCI):
“And” between values parts separate entries of the source, which are not always exact repeats. Identical values can stand only once.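 Exposure lasted 48 hours, with cells grown in 96-well plates and compounds tested at five concentrations. The concentration for 50% growth inhibition is given as GI50. At the TGI there is no net growth.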

Tests used:
Test in all cases: inhibition of tumour cell growth, NCI panel, 48 h
SW-620 colon = test system: SW-620 colon
HCT-15 colon = test system: HCT-15 colon
TK-10 renal = test system: TK-10 renal
SK-OV-3 ovarian = test system: SK-OV-3 ovarian
SK-MEL-28 melanoma = test system: SK-MEL-28 melanoma
XF 498 CNS = test system: XF 498 CNS
RPMI-8226 leukemia = test system: RPMI-8226 leukemia
OVCAR-3 ovarian = test system: OVCAR-3 ovarian
SF-295 CNS = test system: SF-295 CNS
DLD-1 colon = test system: DLD-1 colon
NCI-H23 lung = test system: NCI-H23 lung
HOP-92 NSCLC = test system: HOP-92 NSCLC
K-562 leukemia = test system: K-562 leukemia
A498 renal = test system: A498 renal
SNB-75 CNS = test system: SNB-75 CNS
RXF 393 renal = test system: RXF 393 renal
SF-539 CNS = test system: SF-539 CNS
CAKI-1 renal = test system: CAKI-1 renal
ACHN renal = test system: ACHN renal
COLO 205 colon = test system: COLO 205 colon
NCI-H522 lung = test system: NCI-H522 lung
SNB-78 CNS = test system: SNB-78 CNS
UACC-62 melanoma = test system: UACC-62 melanoma
RXF-631 renal = test system: RXF-631 renal
OVCAR-8 ovarian = test system: OVCAR-8 ovarian
HOP-18 NSCLC = test system: HOP-18 NSCLC
KM12 colon = test system: KM12 colon
HCT-116 colon = test system: HCT-116 colon

COc1cc(CN[C@H]2CCc3cc(OC)c(OC)c(OC)c3-c3ccc(SC)c(=O)cc32)cc(OC)c1
GI50 (SW-620 colon): < 10 nM
TGI (SW-620 colon): > 100000 nM
TGI (HCT-15 colon): 239 nM
GI50 (TK-10 renal): 41.2 nM
TGI (TK-10 renal): 77100 nM
GI50 (SK-OV-3 ovarian): 17.1 nM
GI50 (SK-MEL-28 melanoma): < 10 nM
TGI (SK-MEL-28 melanoma): > 100000 nM
TGI (XF 498 CNS): 977 nM
TGI (RPMI-8226 leukemia): 24200 nM
GI50 (OVCAR-3 ovarian): 14.5 nM
TGI (OVCAR-3 ovarian): 127 nM and 44.4 nM
GI50 (SF-295 CNS): 18.7 nM
GI50 (DLD-1 colon): 23.2 nM
TGI (DLD-1 colon): > 100000 nM
GI50 (NCI-H23 lung): 22.8 nM
TGI (NCI-H23 lung): 78.6 nM and 492 nM
GI50 (HOP-92 NSCLC): 207 nM
TGI (HOP-92 NSCLC): 68700 nM
TGI (K-562 leukemia): 10400 nM
TGI (A498 renal): 167 nM
TGI (SNB-75 CNS): 64.1 nM
TGI (RXF 393 renal): 37.2 nM
GI50 (SF-539 CNS): 17.3 nM
TGI (SF-539 CNS): 45.5 nM and 42.4 nM
GI50 (CAKI-1 renal): 28.2 nM
TGI (CAKI-1 renal): > 100000 nM
GI50 (ACHN renal): 66.2 nM
TGI (ACHN renal): > 100000 nM
GI50 (COLO 205 colon): 14.5 nM
TGI (COLO 205 colon): 105 nM and 81.6 nM
GI50 (NCI-H522 lung): 21.2 nM
TGI (NCI-H522 lung): 67.7 nM and 52 nM
GI50 (SNB-78 CNS): < 10 nM
TGI (SNB-78 CNS): > 100000 nM
TGI (UACC-62 melanoma): 60.5 nM
TGI (RXF-631 renal): 358 nM
GI50 (OVCAR-8 ovarian): 40 nM
TGI (OVCAR-8 ovarian): 31800 nM
GI50 (HOP-18 NSCLC): > 100000 nM
TGI (HOP-18 NSCLC): > 100000 nM
GI50 (KM12 colon): < 10 nM
TGI (KM12 colon): 482 nM and 137 nM
GI50 (HCT-116 colon): < 10 nM
TGI (HCT-116 colon): 174 nM and 127 nM
